# In article PMC5521769, “Identification of odorant binding proteins and chemosensory proteins in Microplitis mediator as well as functional characterization of chemosensory protein 3” (PLoS ONE, 2017):
# Read-outs that look alike come from different tables or passages of the source.
# Key:
# [1] = tested on: MmedOBPs and MmedCSPs (MmdeOBP1–10, MmedCSP1); design: method as in PMID 20388293; conditions: MmdeOBP1–10 and MmedCSP1; ref [22], [23]; cited from earlier work
# M. mediator = tested on: M. mediator; design: method as in PMID 20388293; conditions: ref [22], [23]; cited from earlier work
# recombinant MmedCSP3 = recombinant MmedCSP3 (Microplitis mediator, UniProt A0A219T7S8); test: biochemical; format: binding
# Chain of recombinant MmedCSP3 (A0A219T7S8 entry or part of it): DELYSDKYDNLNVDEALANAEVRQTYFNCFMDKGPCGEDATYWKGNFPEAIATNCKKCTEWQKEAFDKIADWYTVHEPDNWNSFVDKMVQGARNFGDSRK
# Method: The bis-ANS and all compounds were dissolved in HPLC purity-grade methanol with a concentration of 1 mM.
# The bound chemical was evaluated based on its fluorescence intensity with the assumption that the protein was 100% active with a stoichiometry of 1: 1 (protein: ligand) saturation. The binding curves were linearized using a Scatchard plot, and the dissociation constants of the competitors were calculated from the corresponding IC50 values based on the following equation: Ki = [IC50] / (1 + [bis-ANS] / Kbis-ANS), where [bis-ANS] is the free concentration of bis-ANS and Kbis-ANS is the dissociation constant of the complex protein / bis-ANS [33].
# [2] = protein and bis-ANS at 2 μM, competitor 2–40 μM, 50 mM Tris-HCl pH 7.4, mean ± SD, text values are ranges over the named group, read-out: Ki, dissociation constant
compound,measurement,setting,value
CCC/C=C/C=O [(E)-2-hexen-1-al],binding affinity to MmedOBPs and MmedCSPs,[1],no any binding affinity
same,electrophysiological and behavioral responses of M. mediator,M. mediator,could elicit electrophysiological and behavioral responses
CC/C=C\CCOC(C)=O [(Z)-3-hexenyl acetate],binding affinity to MmedOBPs and MmedCSPs,[1],no any binding affinity
same,electrophysiological and behavioral responses of M. mediator,M. mediator,could elicit electrophysiological and behavioral responses
CCCC(=O)OCC [Ethyl butyrate],Ki,recombinant MmedCSP3; [2],32.9 ± 7.43 µM
COC(=O)c1ccccc1O [Methyl salicylate],Ki,recombinant MmedCSP3,39.22 ± 0.25 µM
CCCCCCCC/C=C\CCCCCCCC(=O)O [Octadecenoic acid],Ki,recombinant MmedCSP3; [2],18.2 ± 1.74 µM
CCCCCCCCCCCCCCCC(=O)O [Palmitic acid],Ki,recombinant MmedCSP3,22.2 ± 1.82 µM
"C=C/C=C(\C)CC/C=C(\C)CCC=C(C)C [TMTT, (3E, 7E)-4,8, 12-trimethyltrideca-1,3,7, 11-tetraene]",Ki,recombinant MmedCSP3; [2],26.8 ± 1.27 µM
"O=S(=O)(O)c1cccc2c(-c3ccc(Nc4ccccc4)c4c(S(=O)(=O)O)cccc34)ccc(Nc3ccccc3)c12 [bis-ANS, 4, 4’-dianilino-1,1’-binaphthyl-5,5’-sulfonic acid, reference compound]",Kd,"recombinant MmedCSP3; 2 μM protein titrated with bis-ANS 2–16 μM, 50 mM Tris-HCl pH 7.4, read-out: dissociation constant of the MmedCSP3 / bis-ANS complexes",1750 ± 420 nM
CCCC/C=C\CCCCCCCCCCO [cis-11-hexadecanol],Ki,recombinant MmedCSP3; [2],17.6 ± 1.19 µM
"CCCC/C=C\CCCCCCCCCC=O [cis-11-hexadecenyl Aldehyde, cis-11-hexadecenyl aldehyde]",Ki,recombinant MmedCSP3; [2],17.2 ± 1.67 µM
CC/C=C/CCCCCCCCCCOC(C)=O [trans-11-tetradecenyl acetate],Ki,recombinant MmedCSP3; [2],18.8 ± 2.06 µM
